From patent publication US10172963B2, “Method of binding a CSE1L tumor marker in a tumor of an animal” (priority 2011, dated 2019) come the findings set out here.

Format in all cases: cell-based
For experiment [1], the system named is B16-Ras cells. The experiment in a line: Gelatin zymography assay of microvesicular MMP-2. Particulars: 50 μM PD98059, or stable CSE1L shRNA transfection; microvesicles from conditioned media of serum-starved cells. On the procedure:
Microvesicles harvested from cell number-standardized conditioned media were resolved using 10% SDS-PAGE containing 1 mg/ml gelatin. The gel was washed twice with 2.5% Triton X-100 for 30 min to remove SDS, and subsequently incubated in buffer containing 50 mM Tris-HCl (pH 7.6), 200 mM NaCl, and 10 mM CaCl2 at 37° C. for 24 h. The gel was stained with Comassie blue R-250 (0.125% Comassie blue R-250, 50% methanol, 10% acetic acid) for 30 min and destained with destaining solution (20% methanol, 10% acetic acid, 70% ddH2O) until the clear bands were visualized.
(A) Gelatin zymographic activities of MMP-2 in microvesicles harvested form the cell number-standardized conditioned media of serum-starved B16-dEV, B16-Ras, B16-CSE1L, and B16-Ras/anti-CSE1L cells treated with or without DMSO or 50 μM PD98059 for 48 h as indicated. (B) The in vitro invasion abilities of B16-dEV, B16-Ras, B16-CSE1L, and B16-Ras/anti-CSE1L cells analyzed by Matrigel-based invasion assays. The mean±SD numbers of invasive cells were 109.4±12.6, 406.8±23.9, 311.25±32.4, and 46.75±8.7 cells per field for B16-dEV, B16-CSE1L, B16-Ras, and B16-Ras/anti-CSE1L cells, respectively.

Experiment [2] has as its system B16-Ras cells. Briefly: CSE1L in cell lysates and conditioned media by immunoblotting. To be noted: 50 μM, 24 h. On the procedure:
Cells were washed with phosphate-buffered saline (PBS) and lysed in ice-cold radioimmunoprecipitation assay (RIPA) buffer [25 Mm Tris-HCl (pH 7.2), 0.1% SDS, 0.1% Triton X-100, 1% sodium deoxycholate, 150 mM NaCl, 1 mM EDTA, 1 mM sodium orthovanadate, 1 mM phenylmethylsulfonyl fluoride, 10 μg/ml aprotinin, 5 μg/ml leupeptin, 25 mM β-glycerophosphate, 5 mM sodium orthovanadate, and 5 mM sodium fluoride]. The protein concentrations were determined with a BCA protein assay kit (Pierce, Rockford, Ill., USA). Fifty micrograms of each protein sample was loaded onto SDS-polyacrylamide gel. Proteins were transferred to nitrocellulose membranes (Amersham Pharmacia, Buckinghamshire, UK). […] The levels of protein were detected by Forte Western HRP Substrate (Millipore Corp., Billerica, Mass., USA) according to the manufacturer's instructions.
For Immunoblotting with biotin-conjugated antibodies, the biotin-conjugated antibody was prepared by biotinylating anti-CSE1L antibodies using the Biotin Labeling Kit-NH2 kit according to the manufacturer's protocol (Dojindo Laboratories, Kumamoto, Japan). The Immunoblot was then reacted with horseradish peroxidase (HRP)-conjugated streptavidin and the levels of protein were detected by Forte Western HRP Substrate. […]
On the technique in general: A western blot detects proteins with antibodies after separation by electrophoresis.

In experiment [3] the test system is B16-Ras cells. Briefly: Threonine phosphorylated CSE1L by immunoprecipitation and immunoblotting. Particulars: 50 μM, 24 h. As to the method: Cells grown on plastic dishes were washed with PBS and incubated in immunoprecipitation lysis buffer [10 mM Tris-HCl (pH 7.4), 10 mM EDTA, 0.4% deoxycholic acid, 0.5% Triton X-100, 1 mM phenylmethylsulfonyl fluoride, 10 μg/ml aprotinin, 5 μg/ml leupeptin, 25 mM β-glycerophosphate, 5 mM sodium orthovanadate, and 5 mM sodium fluoride] at 4° C. for 20 min. Cells were scraped and disrupted by pipetting. The cell lysate was cleared of insoluble materials by centrifugation at 12,000 g for 10 min at 4° C., and the protein concentrations were determined with a BCA protein assay kit (Pierce). […]
(A) Levels of cellular threonine phosphorylated CSE1L in B16-dEV cells and B16-Ras cells treated with DMSO or 50 μM PD98059 for 24 h were analyzed by immunoprecipitation with anti-CSE1L antibodies and immunoblotting with HRP-conjugated anti-phosphothreonine antibodies. […] (B) Levels of secretory threonine phosphorylated CSE1L in cell number-standardized conditioned media harvested from serum-starved B16-dEV cells and B16-Ras cells treated with DMSO or 50 μM PD98059 for 24 h were analyzed by immunoprecipitation with anti-CSE1L antibodies and immunoblotting with HRP-conjugated anti-phosphothreonine antibodies. […] (D) The levels of CSE1L in the pool of cancer sera and normal sera were analyzed by immunoblotting with anti-CSE1L antibodies (clone 24).

Experiment [4] relates to B16-Ras cells. The experiment in a line: Levels of microvesicular MMP-2 in microvesicles from conditioned media (immunoblot). To be noted: 50 μM, 48 h, serum-starved B16-Ras cells. As to the method: Cells were washed with phosphate-buffered saline (PBS) and lysed in ice-cold radioimmunoprecipitation assay (RIPA) buffer [25 Mm Tris-HCl (pH 7.2), 0.1% SDS, 0.1% Triton X-100, 1% sodium deoxycholate, 150 mM NaCl, 1 mM EDTA, 1 mM sodium orthovanadate, 1 mM phenylmethylsulfonyl fluoride, 10 μg/ml aprotinin, 5 μg/ml leupeptin, 25 mM β-glycerophosphate, 5 mM sodium orthovanadate, and 5 mM sodium fluoride]. The protein concentrations were determined with a BCA protein assay kit (Pierce, Rockford, Ill., USA). Fifty micrograms of each protein sample was loaded onto SDS-polyacrylamide gel. Proteins were transferred to nitrocellulose membranes (Amersham Pharmacia, Buckinghamshire, UK). The membrane was blocked in blocking buffer [1% bovine serum albumin (BSA), 50 mM Tris-HCl (pH 7.6), 150 mM NaCl, and 0.1% Tween-20] at room temperature for 1 h. The blots were then incubated with primary antibodies at 4° C. overnight followed by incubation with secondary antibodies conjugated to horseradish peroxidase for 1 h. The levels of protein were detected by Forte Western HRP Substrate (Millipore Corp., Billerica, Mass., USA) according to the manufacturer's instructions.
Microvesicles were prepared from conditioned media or sera by size exclusion chromatography and ultracentrifugation. […] Fractions (1 ml) were collected, and the protein content was monitored by measuring absorbance at 280 nm. […]

Where [5] appears, read: conditioned media of serum-starved B16-Ras cells.

As for `COc1cccc(-c2cc(=O)c3ccccc3o2)c1N` [PD98059], in the experiment on B16-Ras cells [1], the “Effect on v-H-ras-induced increase in zymographic activity of microvesicular MMP-2” value was “attenuated the v-H-ras-induced increase in the zymographic activity of microvesicular MMP-2”. Further, in the experiment on B16-Ras cells [2] (cell lysates), the “Effect on CSE1L expression in cells” value was “did not obviously affect CSE1L expression in cells”. Besides, in the experiment on B16-Ras cells [2] (setting [5]), the “Effect on v-H-ras-induced increase in CSE1L secretion” value is given as “attenuated v-H-ras-induced increase in CSE1L secretion”. Further, in the experiment on B16-Ras cells [3] (cell lysates of B16-Ras cells), the “Effect on v-H-ras-increased threonine phosphorylation of cellular CSE1L” value is “inhibited v-H-ras-increased threonine phosphorylation in CSE1L”. For the same compound, the “Effect on v-H-ras-increased secretion of threonine phosphorylated CSE1L” value in the experiment with B16-Ras cells [3] (setting [5]) is reported as “inhibited v-H-ras-increased secretion of threonine phosphorylated CSE1L”. In addition, the “Effect on v-H-ras-induced increase in microvesicular MMP-2” value with B16-Ras cells [4] was “attenuated v-H-ras-induced increase in MMP-2 in microvesicles”.
